The text below walks through data of PubChem BioAssay AID212 (DTP/NCI, 2004).

Values joined by “and” are separate entries in the source; they are usually repeats but may differ in a detail not shown here. Equal entries are not always repeated. Records with an inconclusive call do not appear.

This experiment has as its system BDF1 mice, colon carcinoma 38 sc, T/C %. Nature of the experiment: NCI In Vivo Anticancer Drug Screen. Data for tumor model Colon Carcinoma 38 (subcutaneous) in B6D2F1 (BDF1) mice. An outline of the steps: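 Compound antitumor activity was assessed in mice carrying transplantable tumors. Survival or tumor size was recorded, and each value is the treated-group measurement divided by that of the vehicle-treated control group.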

Setting [1] is: endpoint: median tumor weight (est.), dose: 25.0 mg/kg/injection, schedule: Q07DX002 (ip), vehicle: saline with Tween-80, higher = larger tumour.
Setting [2] is: endpoint: median tumor weight (est.), dose: 12.5 mg/kg/injection, schedule: Q07DX002 (ip), vehicle: saline, higher = larger tumour.
[3] abbreviates: endpoint: median tumor weight (est.), dose: 25.0 mg/kg/injection, schedule: Q07DX002 (ip), vehicle: saline, higher = larger tumour.
The mark [4] stands for this setting: endpoint: median tumor weight (est.), dose: 50.0 mg/kg/injection, schedule: Q07DX002 (ip), vehicle: saline, higher = larger tumour.
Where [5] appears, read: endpoint: median tumor weight (est.), dose: 100.0 mg/kg/injection, schedule: Q07DX002 (ip), vehicle: saline, higher = larger tumour.
[6] abbreviates: endpoint: median tumor weight (est.), dose: 200.0 mg/kg/injection, schedule: Q07DX002 (ip), vehicle: saline, higher = larger tumour.
Where [7] appears, read: endpoint: median tumor weight (est.), dose: 400.0 mg/kg/injection, schedule: Q07DX002 (ip), vehicle: saline, higher = larger tumour.

Take `O=c1s[se]c2ccccc12`: the T/C (endpoint: median tumor weight (est.), dose: 3.12 mg/kg/injection, schedule: Q07DX002 (ip), vehicle: saline with Tween-80, higher = larger tumour) was 73 % of control; the T/C (endpoint: median tumor weight (est.), dose: 12.5 mg/kg/injection, schedule: Q07DX002 (ip), vehicle: saline with Tween-80, higher = larger tumour) was 90 % of control; the T/C under setting [1] was 83 % of control; the T/C (endpoint: median tumor weight (est.), dose: 50.0 mg/kg/injection, schedule: Q07DX002 (ip), vehicle: saline with Tween-80, higher = larger tumour) was 117 % of control.
Turning to `CC1CCC(NC(=O)N(CCCl)N=O)CC1` (stereo not given), the T/C is 115 % of control (endpoint: median survival time, dose: 3.3 mg/kg/injection, schedule: Q01DX010 (oral), vehicle: saline with Tween-80, higher = longer survival); 93 % of control (endpoint: median survival time, dose: 5.0 mg/kg/injection, schedule: Q04DX005 (ip), vehicle: other, higher = longer survival); 99 % of control (endpoint: median survival time, dose: 5.5 mg/kg/injection, schedule: Q01DX010 (oral), vehicle: saline with Tween-80, higher = longer survival); 100 % of control (endpoint: median survival time, dose: 9.0 mg/kg/injection, schedule: Q01DX010 (oral), vehicle: saline with Tween-80, higher = longer survival); 122 % of control (endpoint: median survival time, dose: 10.0 mg/kg/injection, schedule: Q04DX005 (ip), vehicle: other, higher = longer survival); 153 % of control (endpoint: median survival time, dose: 20.0 mg/kg/injection, schedule: Q04DX005 (ip), vehicle: other, higher = longer survival). The T/C was 61 % of control (endpoint: median tumor weight (est.), dose: 4.0 mg/kg/injection, schedule: Q07DX002 (ip), vehicle: Klucel (hydroxypropylcellulose) (HPC), higher = larger tumour); 53 % of control (endpoint: median tumor weight (est.), dose: 8.0 mg/kg/injection, schedule: Q07DX002 (ip), vehicle: Klucel (hydroxypropylcellulose) (HPC), higher = larger tumour); 64 % of control (endpoint: median tumor weight (est.), dose: 16.0 mg/kg/injection, schedule: Q07DX002 (ip), vehicle: Klucel (hydroxypropylcellulose) (HPC), higher = larger tumour); 18 % of control (endpoint: median tumor weight (est.), dose: 32.0 mg/kg/injection, schedule: Q07DX002 (ip), vehicle: Klucel (hydroxypropylcellulose) (HPC), higher = larger tumour).
For the molecule `CC(=O)CC(c1ccccc1)c1c(O)c2ccccc2oc1=O` (stereo not given), the T/C is 96 % of control (endpoint: median tumor weight (est.), dose: 0.01 mg/kg/injection, schedule: Q07DX002 (ip), vehicle: Klucel (hydroxypropylcellulose) (HPC), higher = larger tumour); 119 % of control (endpoint: median tumor weight (est.), dose: 0.02 mg/kg/injection, schedule: Q07DX002 (ip), vehicle: Klucel (hydroxypropylcellulose) (HPC), higher = larger tumour); 100 % of control (endpoint: median tumor weight (est.), dose: 0.05 mg/kg/injection, schedule: Q07DX002 (ip), vehicle: Klucel (hydroxypropylcellulose) (HPC), higher = larger tumour); 95 % of control (endpoint: median tumor weight (est.), dose: 0.1 mg/kg/injection, schedule: Q07DX002 (ip), vehicle: Klucel (hydroxypropylcellulose) (HPC), higher = larger tumour); 86 % of control (endpoint: median tumor weight (est.), dose: 0.2 mg/kg/injection, schedule: Q07DX002 (ip), vehicle: Klucel (hydroxypropylcellulose) (HPC), higher = larger tumour); 115 % of control (endpoint: median tumor weight (est.), dose: 0.22 mg/kg/injection, schedule: Q07DX002 (ip), vehicle: saline, higher = larger tumour). Moreover, the T/C by setting is: (endpoint: median tumor weight (est.), dose: 0.45 mg/kg/injection, schedule: Q07DX002 (ip), vehicle: saline with Tween-80, higher = larger tumour) 91 % of control; (endpoint: median tumor weight (est.), dose: 0.45 mg/kg/injection, schedule: Q07DX002 (ip), vehicle: saline, higher = larger tumour) 96 % of control; (endpoint: median tumor weight (est.), dose: 0.9 mg/kg/injection, schedule: Q07DX002 (ip), vehicle: saline with Tween-80, higher = larger tumour) 110 % of control; (endpoint: median tumor weight (est.), dose: 0.9 mg/kg/injection, schedule: Q07DX002 (ip), vehicle: saline, higher = larger tumour) 88 % of control; (endpoint: median tumor weight (est.), dose: 1.8 mg/kg/injection, schedule: Q07DX002 (ip), vehicle: saline, higher = larger tumour) 72 % of control; (endpoint: median tumor weight (est.), dose: 3.6 mg/kg/injection, schedule: Q07DX002 (ip), vehicle: saline, higher = larger tumour) 67 % of control.
As for `Cn1cnc([N+](=O)[O-])c1SCC(=O)O`, the T/C under setting [2] is 65 % of control; the T/C under setting [3] is 62 % of control; the T/C under setting [4] was 67 % of control; the T/C under setting [5] is 99 % of control; the T/C (endpoint: median tumor weight (est.), dose: 112.5 mg/kg/injection, schedule: Q07DX002 (ip), vehicle: saline, higher = larger tumour) was 111 % of control; the T/C under setting [6] was 94 % of control. The T/C (endpoint: median tumor weight (est.), dose: 225.0 mg/kg/injection, schedule: Q07DX002 (ip), vehicle: saline, higher = larger tumour) is 85 % of control; the T/C under setting [7] was 100 % of control; the T/C (endpoint: median tumor weight (est.), dose: 450.0 mg/kg/injection, schedule: Q07DX002 (ip), vehicle: saline, higher = larger tumour) was 163 % of control; the T/C (endpoint: median tumor weight (est.), dose: 900.0 mg/kg/injection, schedule: Q07DX002 (ip), vehicle: saline, higher = larger tumour) is 59 % of control; the T/C (endpoint: median tumor weight (est.), dose: 1800.0 mg/kg/injection, schedule: Q07DX002 (ip), vehicle: saline, higher = larger tumour) was 101 % of control.
As for `COC(=O)C1(F)C(=O)NC(=O)NC1OC` (stereo not given), the T/C runs as follows: (endpoint: median tumor weight (est.), dose: 100.0 mg/kg/injection, schedule: Q07DX002 (ip), vehicle: Klucel (hydroxypropylcellulose) (HPC), higher = larger tumour) 90 % of control; (endpoint: median tumor weight (est.), dose: 100.0 mg/kg/injection, schedule: Q07DX002 (ip), vehicle: saline with Tween-80, higher = larger tumour) 83 % of control; (endpoint: median tumor weight (est.), dose: 200.0 mg/kg/injection, schedule: Q07DX002 (ip), vehicle: Klucel (hydroxypropylcellulose) (HPC), higher = larger tumour) 72 % of control; (endpoint: median tumor weight (est.), dose: 200.0 mg/kg/injection, schedule: Q07DX002 (ip), vehicle: saline with Tween-80, higher = larger tumour) 83 % of control; (endpoint: median tumor weight (est.), dose: 400.0 mg/kg/injection, schedule: Q07DX002 (ip), vehicle: saline with Tween-80, higher = larger tumour) 55 % of control; (endpoint: median tumor weight (est.), dose: 800.0 mg/kg/injection, schedule: Q07DX002 (ip), vehicle: saline with Tween-80, higher = larger tumour) 85 % of control.
On to `COc1cc(NCc2ccc3nc(N)nc(N)c3c2C)cc(OC)c1OC`, for which the T/C is, setting by setting: (endpoint: median survival time, dose: 5.2 mg/kg/injection, schedule: Q04HX021 (ip), vehicle: sodium bicarbonate, higher = longer survival) 183 % of control; (endpoint: median survival time, dose: 5.9 mg/kg/injection, schedule: Q06HX014 (ip), vehicle: sodium bicarbonate, higher = longer survival) 120 % of control; (endpoint: median survival time, dose: 8.4 mg/kg/injection, schedule: Q04HX021 (ip), vehicle: sodium bicarbonate, higher = longer survival) 194 % of control; (endpoint: median survival time, dose: 8.8 mg/kg/injection, schedule: Q06HX012 (oral), vehicle: sodium bicarbonate, higher = longer survival) 116 % of control; (endpoint: median survival time, dose: 8.8 mg/kg/injection, schedule: Q06HX014 (ip), vehicle: sodium bicarbonate, higher = longer survival) 175 % of control; (endpoint: median survival time, dose: 20.0 mg/kg/injection, schedule: Q06HX012 (oral), vehicle: sodium bicarbonate, higher = longer survival) 177 % of control. In addition, the T/C was 157 % of control (endpoint: median survival time, dose: 67.0 mg/kg/injection, schedule: Q07DX002 (ip), vehicle: sodium bicarbonate, higher = longer survival); 152 % of control (endpoint: median tumor weight (est.), dose: 1.88 mg/kg/injection, schedule: Q07DX002 (ip), vehicle: sodium bicarbonate, higher = larger tumour); 121 % of control (endpoint: median tumor weight (est.), dose: 12.5 mg/kg/injection, schedule: Q07DX002 (ip), vehicle: water, higher = larger tumour); 109 % of control (endpoint: median tumor weight (est.), dose: 25.0 mg/kg/injection, schedule: Q07DX002 (ip), vehicle: water, higher = larger tumour); 109 % of control (endpoint: median tumor weight (est.), dose: 50.0 mg/kg/injection, schedule: Q07DX002 (ip), vehicle: water, higher = larger tumour); 85 % of control (endpoint: median tumor weight (est.), dose: 53.0 mg/kg/injection, schedule: Q07DX002 (ip), vehicle: water, higher = larger tumour). In addition, the T/C is 90 % of control (endpoint: median tumor weight (est.), dose: 66.0 mg/kg/injection, schedule: Q07DX002 (ip), vehicle: water, higher = larger tumour); 120 % of control (endpoint: median tumor weight (est.), dose: 70.0 mg/kg/injection, schedule: Q07DX002 (ip), vehicle: water, higher = larger tumour); 82 % of control (endpoint: median tumor weight (est.), dose: 80.0 mg/kg/injection, schedule: Q07DX002 (ip), vehicle: water, higher = larger tumour); 87 % of control (endpoint: median tumor weight (est.), dose: 99.0 mg/kg/injection, schedule: Q07DX002 (ip), vehicle: water, higher = larger tumour); 217 % of control (endpoint: median tumor weight (est.), dose: 100.0 mg/kg/injection, schedule: Q07DX002 (ip), vehicle: water, higher = larger tumour); 82 % of control (endpoint: median tumor weight (est.), dose: 105.0 mg/kg/injection, schedule: Q07DX002 (ip), vehicle: water, higher = larger tumour). Moreover, the T/C runs as follows: (endpoint: median tumor weight (est.), dose: 120.0 mg/kg/injection, schedule: Q07DX002 (ip), vehicle: sodium bicarbonate, higher = larger tumour) 4 % of control; (endpoint: median tumor weight (est.), dose: 120.0 mg/kg/injection, schedule: Q07DX002 (ip), vehicle: water, higher = larger tumour) 83 % of control.
As for `FC(F)(F)c1nc2nc(Cl)c(Cl)nc2[nH]1`, the T/C under setting [1] is 93 % of control.
Turning to `COc1ccc(C[C@H](N)C(=O)NC2C(CO)OC(n3cnc4c(N(C)C)ncnc43)C2O)cc1` (stereo not given in full), the T/C was 81 % of control under setting [2]; 79 % of control and 91 % of control (endpoint: median tumor weight (est.), dose: 24.0 mg/kg/injection, schedule: Q07DX002 (ip), vehicle: saline, higher = larger tumour); 86 % of control under setting [3]; 80 % of control and 82 % of control (endpoint: median tumor weight (est.), dose: 48.0 mg/kg/injection, schedule: Q07DX002 (ip), vehicle: saline, higher = larger tumour); 92 % of control and 106 % of control under setting [4]; 91 % of control and 108 % of control (endpoint: median tumor weight (est.), dose: 96.0 mg/kg/injection, schedule: Q07DX002 (ip), vehicle: saline, higher = larger tumour). For the same molecule, the T/C is 89 % of control and 94 % of control under setting [5]; 72 % of control and 93 % of control (endpoint: median tumor weight (est.), dose: 192.0 mg/kg/injection, schedule: Q07DX002 (ip), vehicle: saline, higher = larger tumour); 55 % of control and 64 % of control under setting [6]; 64 % of control and 84 % of control (endpoint: median tumor weight (est.), dose: 384.0 mg/kg/injection, schedule: Q07DX002 (ip), vehicle: saline, higher = larger tumour); 21 % of control under setting [7].
